# Patent US9737515B2, “Compositions and methods for inhibiting tumor growth” (Consejo Nacional De Investigaciones Cientificas Y Tecnicas …, priority 2015, dated 2017)
# Assays:
# [1] = system: MCF-7 Tet-Off/ACSL4 cells; experiment: BrdU incorporation cell proliferation assay in MCF-7 Tet-Off/ACSL4 cells; format: cell-based, human
# Procedure: (§1) MCF-7 Tet-Off empty vector and MCF-7 Tet-Off/ACSL4 cells were plated at a density of 4000 cells/well in 96-well plates with 10% FBS-supplemented D-MEM medium and allowed to adhere overnight at 37° C. in a humidified, 5% CO2 atmosphere. The medium was then changed to serum-free medium. After 24 h, the cells were switched to 10% FBS-supplemented D-MEM medium and incubated with rapamycin (10 nM) and/or rosiglitazone (75 μM) for 96 h. Subsequently, cell proliferation was measured by the bromo-deoxyuridine (BrdU) incorporation assay.
# Following the same procedure as that described in Example 1 above, the cells were switched to 10% FBS-supplemented D-MEM medium and incubated with rosiglitazone (10 or 25 μM) and/or 4-hydroxytamoxifen (4-OHTAM, 2.5 or 5.0 μM). Both rosiglitazone and 4-hydroxytamoxifen were tested alone at each of the concentrations used, and in all the possible combinations with each other (see FIG. 6A).
# [2] = system: MCF-7 Tet-Off empty vector cells; experiment: BrdU incorporation cell proliferation assay in MCF-7 Tet-Off empty vector cells; format: cell-based; conditions: Homo sapiens, MCF7, 96 h, vs control cells
# Procedure: as §1
compound,measurement,setting,value
4-hydroxytamoxifen [4-OHT],% inhibition of cell proliferation,"[1]; 4-OHT 2.5 μM, 96 h",0.802%
same,% inhibition of cell proliferation,"[1]; 4-OHT 5 μM, 96 h",3.464%
same,inhibition of cell proliferation (in words),"[1]; rosiglitazone 10 or 25 μM and/or 4-OHTAM 2.5 or 5 μM, 96 h, FIG. 6A",did not produce a significant inhibition
CO[C@H]1C[C@@H]2CC[C@@H](C)[C@@](O)(O2)C(=O)C(=O)N2CCCC[C@H]2C(=O)O[C@H]([C@H](C)C[C@@H]2CC[C@@H](O)[C@H](OC)C2)CC(=O)[C@H](C)/C=C(\C)[C@@H](O)[C@@H](OC)C(=O)[C@H](C)C[C@H](C)/C=C/C=C/C=C/1C [Rapamycin],inhibition at 0.01 µM,[2]; Rapamycin 10 nM,12.2%
same,inhibition at 0.01 µM,"[1]; Homo sapiens, MCF7, 96 h, Rapamycin 10 nM, vs control cells",25%
same,% inhibition of cell proliferation,"[1]; Rapamycin 10 nM, 96 h, vs control cells",22.159%
CN(CCOc1ccc(CC2SC(=O)NC2=O)cc1)c1ccccn1 (stereo not shown) [Rosiglitazone],inhibition at 75 µM,[2]; Rosiglitazone 75 μM,2.81%
same,inhibition at 10 µM,"[1]; Homo sapiens, MCF7, 96 h, Rosiglitazone 10 μM",1.88%
same,inhibition at 25 µM,"[1]; Homo sapiens, MCF7, 96 h, Rosiglitazone 25 μM",7.97%
same,inhibition at 75 µM,"[1]; Homo sapiens, MCF7, 96 h, Rosiglitazone 75 μM, vs control cells",28.5%
